Reference: US9725434B2, “Hydroxy-substituted orexin receptor antagonists” (MERCK SHARP & DOHME CORP., priority 2013, dated 2017)

Assays:
[1] = molecular target: human orexin-1 receptor (hOX1R) (Homo sapiens, UniProt O43613); experiment: FLIPR Ca2+ Flux Assay, hOX1R; format: cell-based; conditions: CHO cells expressing hOX1R; agonist 70 pM Ala-6,12 orexin-A
Description: (§1) Chinese hamster ovary (CHO) cells expressing the human orexin-1 receptor (hOX1R) or the human orexin-2 receptor (hOX2R) were grown in Iscove's modified DMEM containing 2 mM L-glutamine, […], 1% hypoxanthine-thymidine supplement, 100 U/ml penicillin, 100 μg/ml streptomycin and 10% heat-inactivated fetal calf serum (FCS). The cells were seeded at 20,000 cells/well into Becton-Dickinson black 384-well clear bottom sterile plates coated with poly-D-lysine. All reagents were from GIBCO-Invitrogen Corp. The seeded plates were incubated overnight at 37° C. and 5% CO2. Ala-6,12 human orexin-A, used as the agonist, was prepared as a 1 mM stock solution in 1% bovine serum albumin (BSA) and diluted in assay buffer (HBSS containing 20 mM HEPES, 0.1% BSA and 2.5 mM probenecid, pH7.4) for use in the assay at a final concentration of 70 pM. Test compounds were prepared as 10 mM stock solution in DMSO, then diluted in 384-well plates, first in DMSO, then assay buffer.
On the day of the assay, cells were washed 3× with 100 μl assay buffer and then incubated for 60 minutes (37° C., 5% CO2) in 60 μl assay buffer containing 1 μM Fluo-4AM ester, 0.02% pluronic acid, and 1% BSA. The dye loading solution was then aspirated and cells were washed 3× with 100 μl assay buffer. 30 μl of that same buffer was left in each well. Within the Fluorescent Imaging Plate Reader (FLIPR, Molecular Devices), test compounds were added to the plate in a volume of 25 μl, incubated for 5 minutes, and then 25 μl of agonist was added. Fluorescence was measured for each well at 1 second intervals for 5 minutes, and the height of each fluorescence peak was compared to the height of the fluorescence peak induced by 70 pM of Ala-6,12 orexin-A with buffer in place of test compound.

[2] = molecular target: human orexin-2 receptor (hOX2R) (Homo sapiens (Human), UniProt O43614); experiment: FLIPR Ca2+ Flux Assay, hOX2R; format: cell-based; conditions: CHO cells expressing hOX2R; agonist 70 pM Ala-6,12 orexin-A
Chain of human orexin-2 receptor (hOX2R) (O43614 whole entry): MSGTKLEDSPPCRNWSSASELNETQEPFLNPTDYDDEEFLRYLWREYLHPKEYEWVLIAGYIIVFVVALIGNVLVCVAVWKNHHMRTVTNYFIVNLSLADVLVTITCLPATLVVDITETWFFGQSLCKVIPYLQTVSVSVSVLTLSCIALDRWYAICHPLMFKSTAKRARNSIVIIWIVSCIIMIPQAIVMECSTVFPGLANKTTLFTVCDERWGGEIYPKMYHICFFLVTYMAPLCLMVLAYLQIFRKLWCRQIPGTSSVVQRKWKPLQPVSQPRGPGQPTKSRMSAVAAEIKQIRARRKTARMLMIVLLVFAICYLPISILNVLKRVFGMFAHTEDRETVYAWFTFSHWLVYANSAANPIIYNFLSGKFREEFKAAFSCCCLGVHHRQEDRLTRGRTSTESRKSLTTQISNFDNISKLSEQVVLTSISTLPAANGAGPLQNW
Description: In a typical experiment the OX1 and OX2 receptor antagonistic activity of the compounds of the present invention was determined in accordance with the following experimental method. For intracellular calcium measurements, Chinese hamster ovary (CHO) cells expressing the rat orexin-1 receptor or the human orexin-2 receptor, are grown in Iscove's modified DMEM containing 2 mM L-glutamine, […], 1% hypoxanthine-thymidine supplement, 100 U/ml penicillin, 100 μg/ml streptomycin and 10% heat-inactivated fetal calf serum (FCS). The cells are seeded at 20,000 cells/well into Becton-Dickinson black 384-well clear bottom sterile plates coated with poly-D-lysine. All reagents were from GIBCO-Invitrogen Corp. The seeded plates are incubated overnight at 37° C. and 5% CO2. Ala-6,12 human orexin-A as the agonist is prepared as a 1 mM stock solution in 1% bovine serum albumin (BSA) and diluted in assay buffer (HBSS containing 20 mM HEPES, 0.1% BSA and 2.5 mM probenecid, pH7.4) for use in the assay at a final concentration of 70 pM. Test compounds are prepared as 10 mM stock solution in DMSO, then diluted in 384-well plates, first in DMSO, then assay buffer. On the day of the assay, cells are washed 3 times with 100 μl assay buffer and then incubated for 60 min (37° C., 5% CO2) in 60 μl assay buffer containing 1 μM Fluo-4AM ester, 0.02% pluronic acid, and 1% BSA. The dye loading solution is then aspirated and cells are washed 3 times with 100 μl assay buffer. 30 μl of that same buffer is left in each well. Within the Fluorescent Imaging Plate Reader (FLIPR, Molecular Devices), test compounds are added to the plate in a volume of 25 μl, incubated for 5 min and finally 25 μl of agonist is added. Fluorescence is measured for each well at 1 second intervals for 5 minutes and the height of each fluorescence peak is compared to the height of the fluorescence peak induced by 70 pM Ala-6,12 orexin-A with buffer in place of antagonist. […] Alternatively, compound potency can be assessed by a radioligand binding assay (described in Bergman et. al. Bioorg. Med. Chem. Lett. 2008, 18, 1425-1430) in which the inhibition constant (Ki) is determined in membranes prepared from CHO cells expressing either the OX1 or OX2 receptor. The intrinsic orexin receptor antagonist activity of a compound which may be used in the present invention may be determined by these assays.
as §1
On the day of the assay, cells were washed 3× with 100 μl assay buffer and then incubated for 60 minutes (37° C., 5% CO2) in 60 μl assay buffer containing 1 μM Fluo-4AM ester, 0.02% pluronic acid, and 1% BSA. The dye loading solution was then aspirated and cells were washed 3× with 100 μl assay buffer.

Compound | IC50 [1] | IC50 [2]
C[C@@H]1CC[C@@H](Oc2ccc3c(c2)C(O)CC3)CN1C(=O)c1ccccc1-n1nccn1 (stereo partly drawn) [Example 24, 6-{[(3R,6R)-6-Methyl-1-{[2-(2H-1,2,3-triazol-2-yl)phenyl]carbonyl}piperidin-3-yl]oxy}-2,3-dihydro-1H-inden-1-ol] | 2070 nM | 
C[C@@H]1CC[C@@H](Oc2cccc3c2CCC[C@]3(C)O)CN1C(=O)c1ccccc1-n1nccn1 [Example 30, (1S)-1-methyl-5-{[(3R,6R)-6-methyl-1-{[2-(2H-1,2,3-triazol-2-yl)phenyl]carbonyl}piperidin-3-yl]oxy}-1,2,3,4-tetrahydronaphthalen-1-ol] | 289 nM | 20 nM
CC(O)c1cccc(O[C@@H]2CC[C@@H](C)N(C(=O)c3ccccc3-c3ncccn3)C2)c1 (stereo partly drawn) [Example 3, 1-[3-({(3R,6R)-6-Methyl-1-[(2-pyrimidin-2-ylphenyl)carbonyl]piperidin-3-yl}oxy)phenyl]ethanol] | 4240 nM | 119 nM
C[C@@H]1CC[C@@H](Oc2cccc(C(C)(C)O)c2)CN1C(=O)c1ccsc1-n1nccn1 [Example 37, 2-(3-{[(3R,6R)-6-Methyl-1-{[2-(2H-1,2,3-triazol-2-yl)thiophen-3-yl]carbonyl}piperidin-3-yl]oxy}phenyl)propan-2-ol] | 10000 nM | 45 nM
CCC(C)(O)c1ccnc(O[C@@H]2CC[C@@H](C)N(C(=O)c3ccccc3-n3nccn3)C2)c1 (stereo partly drawn) [Example 9, 2-(2-{[(3R,6R)-6-Methyl-1-{[2-(2H-1,2,3-triazol-2-yl)phenyl]carbonyl}piperidin-3-yl]oxy}pyridin-4-yl)butan-2-ol] | 436 nM | 14 nM
C[C@@H]1CC[C@@H](Oc2cccc(C(C)(O)C(F)F)c2)CN1C(=O)c1ccccc1-n1nccn1 (stereo partly drawn) [Example 36, 1,1-difluoro-2-(3-{[(3R,6R)-6-methyl-1-{[2-(2H-1,2,3-triazol-2-yl)phenyl]carbonyl}piperidin-3-yl]oxy}phenyl)propan-2-ol] | 7280 nM | 18 nM
C[C@@H]1CC[C@@H](Oc2cccc(C(C)(O)C3CCC3)c2)CN1C(=O)c1ccccc1-n1nccn1 (stereo partly drawn) [Example 17, 1-Cyclobutyl-1-(3-{[(3R,6R)-6-methyl-1-{[2-(2H-1,2,3-triazol-2-yl)phenyl]carbonyl}piperidin-3-yl]oxy}phenyl)ethanol] | 8690 nM | 82 nM
C[C@@H]1CC[C@@H](Oc2cccc(C(C)(O)C(F)(F)F)c2)CN1C(=O)c1ccccc1-n1nccn1 (stereo partly drawn) [Example 5, 1,1,1-Trifluoro-2-(3-{[(3R,6R)-6-methyl-1-{[2-(2H-1,2,3-triazol-2-yl)phenyl]carbonyl}piperidin-3-yl]oxy}phenyl)propan-2-ol] | 5540 nM | 89 nM
C[C@@H]1CC[C@@H](Oc2cc(C(C)(C)O)ccn2)CN1C(=O)c1ccccc1-n1nccn1 [Example 4, 2-(2-{[(3R,6R)-6-Methyl-1-{[2-(2H-1,2,3-triazol-2-yl)phenyl]carbonyl}piperidin-3-yl]oxy}pyridin-4-yl)propan-2-ol] | 996 nM | 20 nM
C[C@@H]1CC[C@@H](Oc2cccc3c2CC[C@@H]3O)CN1C(=O)c1ccccc1-n1nccn1 [Example 26, (1S)-4-{[(3R,6R)-6-Methyl-1-{[2-(2H-1,2,3-triazol-2-yl)phenyl]carbonyl}piperidin-3-yl]oxy}-2,3-dihydro-1H-inden-1-ol] | 1530 nM | 25 nM
C[C@@H]1CC[C@@H](Oc2cccc3c2CC[C@H]3O)CN1C(=O)c1ccccc1-n1nccn1 [Example 25, (1R)-4-{[(3R,6R)-6-Methyl-1-{[2-(2H-1,2,3-triazol-2-yl)phenyl]carbonyl}piperidin-3-yl]oxy}-2,3-dihydro-1H-inden-1-ol] | 7200 nM | 238 nM
CC(O)c1cccc(O[C@@H]2CC[C@@H](C)N(C(=O)c3ccccc3-n3nccn3)C2)c1 (stereo partly drawn) [Example 1, 1-(3-{[(3R,6R)-6-Methyl-1-{[2-(2H-1,2,3-triazol-2-yl)phenyl]carbonyl}piperidin-3-yl]oxy}phenyl)ethanol] | 4510 nM | 98 nM
C[C@@H]1CC[C@@H](Oc2cc([C@](C)(O)C3CC3)ccn2)CN1C(=O)c1ccccc1-n1nccn1 [Example 11, (1R)-1-cyclopropyl-1-(2-{[(3R,6R)-6-methyl-1-{[2-(2H-1,2,3-triazol-2-yl)phenyl]carbonyl}piperidin-3-yl]oxy}pyridin-4-yl)ethanol] | 297 nM | 14 nM
C[C@@H]1CC[C@@H](Oc2cc(C3(O)CCC3)ccn2)CN1C(=O)c1ccccc1-n1nccn1 [Example 8, 1-(2-{[(3R,6R)-6-methyl-1-{[2-(2H-1,2,3-triazol-2-yl)phenyl]carbonyl}piperidin-3-yl]oxy}pyridin-4-yl)cyclobutanol] | 1520 nM | 41 nM
(1R)-6-{[(3R,6R)-6-Methyl-1-{[2-(2H-1,2,3-triazol-2-yl)phenyl]carbonyl}piperidin-3-yl]oxy}-2,3-dihydro-1H-inden-1-ol [Example 27] | 1340 nM | 
C[C@@H]1CC[C@@H](Oc2cccc(C(C)(C)O)c2)CN1C(=O)c1ccccc1-n1nccn1 [Example 6, 2-(3-{[(3R,6R)-6-Methyl-1-{[2-(2H-1,2,3-triazol-2-yl)phenyl]carbonyl}piperidin-3-yl]oxy}phenyl)propan-2-ol] | 10000 nM | 32 nM
C[C@@H]1CC[C@@H](Oc2cc([C@@](C)(O)C3CC3)ccn2)CN1C(=O)c1ccccc1-n1nccn1 [Example 12, (1S)-1-cyclopropyl-1-(2-{[(3R,6R)-6-methyl-1-{[2-(2H-1,2,3-triazol-2-yl)phenyl]carbonyl}piperidin-3-yl]oxy}pyridin-4-yl)ethanol] | 241 nM | 13 nM
(1R)-1-Methyl-6-{[(3R,6R)-6-methyl-1-{[2-(2H-1,2,3-triazol-2-yl)phenyl]carbonyl}piperidin-3-yl]oxy}-2,3-dihydro-1H-inden-1-ol [Example 34] | 1170 nM | 112 nM
C[C@@H]1CC[C@@H](Oc2cccc(C(C)(O)C3CC3)c2)CN1C(=O)c1ccccc1-n1nccn1 (stereo partly drawn) [Example 15, 1-Cyclopropyl-1-(3-{[(3R,6R)-6-methyl-1-{[2-(2H-1,2,3-triazol-2-yl)phenyl]carbonyl}-piperidin-3-yl]oxy}phenyl)ethanol] | 2100 nM | 36 nM
C[C@@H]1CC[C@@H](Oc2cccc3c2CCC[C@@]3(C)O)CN1C(=O)c1ccccc1-n1nccn1 [Example 29, (1R)-1-Methyl-5-{[(3R,6R)-6-methyl-1-{[2-(2H-1,2,3-triazol-2-yl)phenyl]carbonyl}piperidin-3-yl]oxy}-1,2,3,4-tetrahydronaphthalen-1-ol] | 10000 nM | 123 nM
(1S)-6-{[(3R,6R)-6-Methyl-1-{[2-(2H-1,2,3-triazol-2-yl)phenyl]carbonyl}piperidin-3-yl]oxy}-2,3-dihydro-1H-inden-1-ol [Example 28] | 10000 nM | 
